Laboratory results published in US20240425464A1, “Substituted Monohydrazides as Potent Antifungal Agents” (University of Kentucky Research Foundation, priority 2023, published 2024).
Converted amounts (≈) assume the structure as drawn. Like-named read-outs stand apart in the source and are kept apart here.

Experiments:
Type in all cases: cell-based, Candida albicans
[1] = test system: C. albicans ATCC 10231 (strain A); test: MIC determination by in vitro antifungal assay (CLSI broth dilution); details: strain A = C. albicans ATCC 10231, no visible growth, 48 h at 35° C.
Description: (§1) 10 mg/mL stock solutions of compounds 1a-9j were prepared in dimethyl sulfoxide (DMSO) and were stored at −20° C. in the dark. The antifungal agent amphotericin B (AmB) was purchased from VWR (Radnor PA, USA). AmB was dissolved in DMSO at a final concentration of 5 mg/mL and was stored at −20° C., protected from light. Candida albicans American Type Culture Collection (ATCC) 10231 (strain A), C. albicans ATCC 64124 (B), and C. albicans ATCC MYA-2876 (C) were obtained from Utah State University. C. albicans ATCC 90819 (D), C. albicans ATCC MYA-2310 (E), C. albicans ATCC MYA-1237 (F), C. albicans ATCC MYA-1003 (G), Candida glabrata ATCC 2001 (H), Candida krusei ATCC 6258 (I), Candida parapsilosis ATCC 22019 (J), Cryptococcus neoformans ATCC MYA-895 (M), Aspergillus terreus ATCC MYA-3633 (N), and Aspergillus flavus ATCC MYA-3631 (0) were obtained from the American Type Culture Collection (ATCC; Manassas, VA, USA). Aspergillus nidulans ATCC 38163 (P) was obtained from University of Kentucky. Clinically derived Aspergillus fumigatus NRRL 163 (Q), A. fumigatus NRRL 5109 (R), and A. fumigatus NRRL 6113 (S) were obtained from Northern Regional Research Laboratory (NRRL). Candida auris 384 (K), C. auris 390 (L), and fungal strains 381-400 (including 10 C. auris (AR Bank #381-390), 3 Candida duobushaemulonii (AR Bank #391, AR Bank #392, and AR Bank #394), 2 Candida haemulonii (AR Bank #393 and AR Bank #395), 1 Kodameae ohmeri (AR Bank #396), 1 C. krusei (AR Bank #397), 1 Candida lusitaniae (AR Bank #398), and 2 Saccharomyces cerevisiae strains (AR Bank #399 and AR Bank #400)) were part of a larger fungal library from the AR Bank maintained by the Centers for Disease Control and Prevention (CDC; Atlanta, GA, USA). Filamentous fungi and yeasts were cultivated at 35° C. in RPMI 1640 medium (with L-glutamine, without sodium bicarbonate, Sigma-Aldrich, St. Louis, MO) buffered to a pH of 7.0 with 0.165 M morpholinepropanesulfonic acid (MOPS) buffer (Sigma-Aldrich). For cytotoxicity assays, HepG2 and the mouse macrophage cell line J774A.1 were obtained from University of Kentucky. The human embryonic kidney cell line, HEK-293, was bought from the ATCC. Mammalian cells were grown in Dulbecco's Modified Eagle's Medium (DMEM) (from VWR) with 10% fetal bovine serum (FBS) (from VWR) and 1% Pen/Strep (from ATCC). Cell lines were cultured at 37° C. with 5% CO2 and passaged by trypsinization with 0.05% trypsin: 0.53 mM EDTA (from Sigma-Aldrich).
(§2) The MIC values of compounds 1a-9j against yeast cells (strains A-P and 381-400) were determined in 96-well plates as described in the CLSI documents M27-A3 and M38-A2 with minor modifications.^2 A single colony of freshly prepared yeast cells was used to inoculate 5 mL of yeast extract peptone dextrose (YPD) broth prior to incubation overnight with shaking at 200 rpm at 35° C. From the actively growing yeast culture, 100 µL were then transferred to 900 μL of RPMI 1640 medium and re-adjusted to achieve OD600 of 0.12 (˜1×10^6 CFU/mL). The cell suspension was further diluted to achieve 1:100 in RPMI 1640 medium. 100 μL of cells were added to the wells of a 96-well microtiter plates that contained 100 µL of the compound solution to obtain concentrations of 0.06-31.3 μg/mL of compounds 1a-9j or AmB prior to incubation for 48 h at 35° C. […]

[2] = test system: C. albicans ATCC 64124 (B); test: MIC determination by in vitro antifungal assay
Description: as §1, §2

[3] = test system: C. albicans ATCC 90819 (D); test: MIC determination by in vitro antifungal assay
Description: as §1, §2

[4] = test system: C. albicans ATCC MYA-1003 (G); test: MIC determination by in vitro antifungal assay; details: strain G = C. albicans ATCC MYA-1063(R) (footnote), MYA-1003 in text
Description: as §1, §2

[5] = test system: C. albicans ATCC MYA-1237 (F); test: MIC determination by in vitro antifungal assay; details: strain F = C. albicans ATCC MYA-1237(R)
Description: as §1, §2

[6] = test system: C. albicans ATCC MYA-2310 (E); test: MIC determination by in vitro antifungal assay; details: strain E = C. albicans ATCC MYA-2310
Description: as §1, §2

[7] = test system: C. albicans ATCC MYA-2876 (C); test: MIC determination by in vitro antifungal assay; details: strain C = C. albicans ATCC MYA-2876(S)
Description: as §1, §2

[8] = strain B = C. albicans ATCC 64124
[9] = strain D = C. albicans ATCC 90819(R)
[10] = Candida albicans, ATCC10231, 48 h, read-out: MIC
[11] = Candida albicans, ATCC64124, strain B = C. albicans ATCC 64124, read-out: MIC
[12] = Candida albicans, ATCC90819, strain D = C. albicans ATCC 90819(R), read-out: MIC
[13] = Candida albicans, read-out: MIC

| SMILES | MIC [1] [μg/mL^−1] | MIC [2, 8] [μg/mL^−1] | MIC [3, 9] [μg/mL^−1] | MIC [4] [μg/mL^−1] | MIC [5] [μg/mL^−1] | MIC [6] [μg/mL^−1] | MIC [7] [μg/mL^−1] | MIC [1, 10] [µg/mL] | MIC [2, 11] [µg/mL] | MIC [3, 12] [µg/mL] | MIC [4, 13] [µg/mL] | MIC [5, 13] [µg/mL] | MIC [6, 13] [µg/mL] | MIC [7, 13] [µg/mL] |
| --- | --- | --- | --- | --- | --- | --- | --- | --- | --- | --- | --- | --- | --- | --- |
| O=C(NNc1cccc(F)c1)c1ccccn1 [Compound 2a] | ≤0.06 | 0.98 | 0.49 | 0.98 | 0.98 | 1.95 | 0.98 |  |  |  |  |  |  |  |
| O=C(NNc1ccc(F)cc1F)c1ncc(F)cc1F [Compound 7g] |  |  |  |  |  |  |  | 0.98 (≈ 3.44 µM) | 3.9 (≈ 13.7 µM) | 3.9 (≈ 13.7 µM) | 1.95 (≈ 6.84 µM) | 3.9 (≈ 13.7 µM) | 3.9 (≈ 13.7 µM) | 3.9 (≈ 13.7 µM) |
| O=C(NNc1ccc(F)cc1F)c1ccc(F)cn1 [Compound 3g] |  |  |  |  |  |  |  | 0.49 (≈ 1.83 µM) | 1.95 (≈ 7.3 µM) | 1.95 (≈ 7.3 µM) | 0.98 (≈ 3.67 µM) | 1.95 (≈ 7.3 µM) | 1.95 (≈ 7.3 µM) | 1.95 (≈ 7.3 µM) |
| O=C(NNc1cc(F)cc(F)c1)c1ccccn1 [Compound 2i] |  |  |  |  |  |  |  | ≤ 0.06 | 0.98 (≈ 3.93 µM) | 0.98 (≈ 3.93 µM) | 0.49 (≈ 1.97 µM) | 1.95 (≈ 7.82 µM) | 0.98 (≈ 3.93 µM) | 0.98 (≈ 3.93 µM) |
| O=C(NNc1cc(Cl)cc(Cl)c1)c1ccc(F)cc1F [Compound 1j] |  |  |  |  |  |  |  | 3.9 (≈ 12.3 µM) | > 31.3 | > 31.3 | 7.8 (≈ 24.6 µM) | 15.6 (≈ 49.2 µM) | > 31.3 | > 31.3 |
| COc1ccc(NNC(=O)c2ncc(F)cc2F)cc1 [Compound 7f] |  |  |  |  |  |  |  | 1.95 (≈ 6.98 µM) | 1.95 (≈ 6.98 µM) | 1.95 (≈ 6.98 µM) | 0.98 (≈ 3.51 µM) | 0.98 (≈ 3.51 µM) | 1.95 (≈ 6.98 µM) | 1.95 (≈ 6.98 µM) |
| O=C(NNc1ccc(F)cc1)c1ccc(F)cc1F [Compound 1d] |  |  |  |  |  |  |  | 0.49 (≈ 1.84 µM) | 7.8 (≈ 29.3 µM) | 1.95 (≈ 7.32 µM) | 1.95 (≈ 7.32 µM) | 1.95 (≈ 7.32 µM) | 3.9 (≈ 14.6 µM) | 7.8 (≈ 29.3 µM) |
| O=C(NNc1ccc(F)cc1)c1ncc(F)cc1F [Compound 7d] |  |  |  |  |  |  |  | 0.98 (≈ 3.67 µM) | 1.95 (≈ 7.3 µM) | 1.95 (≈ 7.3 µM) | 0.98 (≈ 3.67 µM) | 1.95 (≈ 7.3 µM) | 3.9 (≈ 14.6 µM) | 1.95 (≈ 7.3 µM) |
| O=C(NNc1cc(Cl)cc(Cl)c1)c1cnccn1 [Compound 9j] |  |  |  |  |  |  |  | 0.49 (≈ 1.73 µM) | 3.9 (≈ 13.8 µM) | 1.95 (≈ 6.89 µM) | 3.9 (≈ 13.8 µM) | 1.95 (≈ 6.89 µM) | 7.8 (≈ 27.6 µM) | 3.9 (≈ 13.8 µM) |
| COc1ccc(NNC(=O)c2cnccn2)cc1 [Compound 9f] |  |  |  |  |  |  |  | 0.49 (≈ 2.01 µM) | 0.98 (≈ 4.01 µM) | 0.98 (≈ 4.01 µM) | 1.95 (≈ 7.98 µM) | 0.98 (≈ 4.01 µM) | 1.95 (≈ 7.98 µM) | 1.95 (≈ 7.98 µM) |
| COc1cccc(NNC(=O)c2ccc(F)cn2)c1 [Compound 3c] | 0.24 | 0.95 | 3.9 | 0.98 | 1.95 | 1.95 | 0.49 |  |  |  |  |  |  |  |
| O=C(NNc1cccc(F)c1)c1ccc(Br)cn1 [Compound 4a] | 0.49 | 0.49 | 3.9 | 0.98 | 3.9 | 3.9 | 1.95 |  |  |  |  |  |  |  |
| O=C(NNc1cccc(F)c1)c1cccc(F)n1 [Compound 5a] | 0.49 | 0.49 | 7.8 | 1.95 | 1.95 | 1.95 | 3.9 |  |  |  |  |  |  |  |
| O=C(NNc1ccc(F)cc1)c1cnccn1 [Compound 9d] |  |  |  |  |  |  |  | 0.24 (≈ 1.03 µM) | 1.98 (≈ 8.53 µM) | 0.98 (≈ 4.22 µM) | 1.95 (≈ 8.4 µM) | 0.98 (≈ 4.22 µM) | 7.8 (≈ 33.6 µM) | 7.8 (≈ 33.6 µM) |
| COc1cccc(NNC(=O)c2ccccn2)c1 [Compound 2c] | 0.24 | 0.98 | 1.95 | 0.98 | 1.95 | 1.95 | 0.98 |  |  |  |  |  |  |  |
| COc1ccc(NNC(=O)c2ccccn2)cc1 [Compound 2f] |  |  |  |  |  |  |  | 0.12 (≈ 0.493 µM) | 0.98 (≈ 4.03 µM) | 0.49 (≈ 2.01 µM) | 0.98 (≈ 4.03 µM) | 0.98 (≈ 4.03 µM) | 0.98 (≈ 4.03 µM) | 1.95 (≈ 8.02 µM) |
| O=C(NNc1ccc(Cl)cc1)c1ccc(F)cn1 [Compound 3e] | 1.95 | 1.95 | 3.9 | 0.98 | 1.95 | 1.95 | 1.95 |  |  |  |  |  |  |  |
| O=C(NNc1ccc(F)cc1)c1nc(F)ccc1F [Compound 8d] |  |  |  |  |  |  |  | 0.24 (≈ 0.898 µM) | 0.98 (≈ 3.67 µM) | 0.98 (≈ 3.67 µM) | 0.49 (≈ 1.83 µM) | 0.98 (≈ 3.67 µM) | 0.98 (≈ 3.67 µM) | 0.98 (≈ 3.67 µM) |
| O=C(NNc1cc(Cl)cc(Cl)c1)c1ccccn1 [Compound 2j] |  |  |  |  |  |  |  | 0.24 (≈ 0.851 µM) | 1.95 (≈ 6.91 µM) | 0.98 (≈ 3.47 µM) | 1.95 (≈ 6.91 µM) | 3.9 (≈ 13.8 µM) | 1.95 (≈ 6.91 µM) | 1.95 (≈ 6.91 µM) |
| O=C(NNc1cccc(F)c1)c1cnccn1 [Compound 9a] | 0.24 | 1.95 | 0.98 | 0.98 | 0.98 | 7.8 | 3.9 |  |  |  |  |  |  |  |
| COc1cccc(NNC(=O)c2cnccn2)c1 [Compound 9c] |  |  |  |  |  |  |  | 0.49 (≈ 2.01 µM) | 0.98 (≈ 4.01 µM) | 1.95 (≈ 7.98 µM) | 0.98 (≈ 4.01 µM) | 1.95 (≈ 7.98 µM) | 1.95 (≈ 7.98 µM) | 1.95 (≈ 7.98 µM) |
| COc1ccc(NNC(=O)c2ccc(F)cc2F)cc1 [Compound 1f] |  |  |  |  |  |  |  | 0.98 (≈ 3.52 µM) | 1.95 (≈ 7.01 µM) | 1.95 (≈ 7.01 µM) | 1.95 (≈ 7.01 µM) | 1.95 (≈ 7.01 µM) | 1.95 (≈ 7.01 µM) | 1.95 (≈ 7.01 µM) |
| O=C(NNc1cc(F)ccc1F)c1ccc(F)cc1F [Compound 1h] |  |  |  |  |  |  |  | 3.9 (≈ 13.7 µM) | 15.6 (≈ 54.9 µM) | 31.3 (≈ 110 µM) | 31.3 (≈ 110 µM) | 31.3 (≈ 110 µM) | 31.3 (≈ 110 µM) | 31.3 (≈ 110 µM) |
